Source: article PMC4100783 (Biochemistry, 2014)
Where “and” joins values, the source holds several entries; their conditions need not be identical. Equal entries are not always repeated.

How the values were obtained:
MftR-mftrO complex = assay type: biochemical, Burkholderia thailandensis
MftR-mftpO complex = assay type: biochemical, Burkholderia thailandensis
mftR [1] = assay type: binding, Burkholderia thailandensis; conditions: read-out: K
mftR [2] = assay type: binding, Burkholderia thailandensis
MftR W11F = assay type: binding, Burkholderia thailandensis
MftR D56S = assay type: binding, Burkholderia thailandensis
mftR [3] = conditions: cited from earlier work
MftR WT = target: T1, MftR WT (Burkholderia thailandensis E264, UniProt Q2SVY7 1-164); assay: EMSA
T1 sequence: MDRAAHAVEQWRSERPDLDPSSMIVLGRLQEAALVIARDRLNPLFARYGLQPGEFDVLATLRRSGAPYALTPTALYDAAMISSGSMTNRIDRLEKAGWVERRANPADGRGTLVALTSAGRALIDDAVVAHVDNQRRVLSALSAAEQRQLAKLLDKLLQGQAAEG

O=c1[nH]c(=O)c2[nH]c(=O)[nH]c2[nH]1 [urate]
IC50 (MftR-mftrO complex): 3700 ± 300 µM | IC50 (MftR-mftpO complex): 2200 µM | Kd (mftR [1]): 6.1 ± 2.1 µM | Tm of MftR (mftR [2]): 61.3 ± 1.0 °C | Tm of MftR D1 (mftR [2]): 49.2 ± 0.2 °C | Tm of MftR D2 (mftR [2]): 58.0 ± 0.1 °C | Tm of W11F (MftR W11F): 27.0 ± 0.1 °C and 28.8 ± 0.7 °C | increase of Tm compared to protein alone (MftR W11F): ~4 °C | Tm of D56S (MftR D56S): 52.3 ± 0.3 °C and 51.3 ± 0.1 °C

O=c1[nH]cnc2nc[nH]c12 [hypoxanthine]
effect on DNA binding by MftR (mftR [3]): inhibit DNA binding, albeit less efficiently than urate

O=c1[nH]c(=O)c2nc[nH]c2[nH]1 [xanthine]
effect on DNA binding by MftR (mftR [3]): inhibit DNA binding, albeit less efficiently than urate

B1: mftrO (dsDNA)
DNA 1: CGTCCAAGTTATCTTGACGTAGAGACATGTCGAATC
DNA 2: GATTCGACATGTCTCTACGTCAAGATAACTTGGACG
Kd (MftR WT): 0.0007 ± 0.0001 µM

B2: mftpO (dsDNA)
DNA 1: TGTCGAATCTATCTTGATGTCGAGACAATTATACGC
DNA 2: GCGTATAATTGTCTCGACATCAAGATAGATTCGACA
Kd (MftR WT): 0.0006 ± 0.0001 µM
